In general, IC50 refers to the concentration that inhibits the measured activity by half. Higher therefore signals weaker potency. One may read the Kd as the concentration at which binding is half-saturated.

From BindingDB's records for doi:10.1074/jbc.M113.533885 (University of Texas Southwestern Medical Center, 2014) come the findings set out here.

Test [1] has as its target T1, [Pyruvate dehydrogenase (acetyl-transferring)] kinase isozyme 2, mitochondrial (Homo sapiens, UniProt Q15119). As to the kind of experiment: PDK Inhibition Assay. The settings on record: pH 7.5; 25 °C.
The target in test [2] is [Pyruvate dehydrogenase (acetyl-transferring)] kinase isozyme 4, mitochondrial (Homo sapiens, UniProt Q16654). As to the kind of experiment: PDK Inhibition Assay. To be noted: pH 7.5; 25 °C.
Sequence of [Pyruvate dehydrogenase (acetyl-transferring)] kinase isozyme 4, mitochondrial (Q16654 whole entry): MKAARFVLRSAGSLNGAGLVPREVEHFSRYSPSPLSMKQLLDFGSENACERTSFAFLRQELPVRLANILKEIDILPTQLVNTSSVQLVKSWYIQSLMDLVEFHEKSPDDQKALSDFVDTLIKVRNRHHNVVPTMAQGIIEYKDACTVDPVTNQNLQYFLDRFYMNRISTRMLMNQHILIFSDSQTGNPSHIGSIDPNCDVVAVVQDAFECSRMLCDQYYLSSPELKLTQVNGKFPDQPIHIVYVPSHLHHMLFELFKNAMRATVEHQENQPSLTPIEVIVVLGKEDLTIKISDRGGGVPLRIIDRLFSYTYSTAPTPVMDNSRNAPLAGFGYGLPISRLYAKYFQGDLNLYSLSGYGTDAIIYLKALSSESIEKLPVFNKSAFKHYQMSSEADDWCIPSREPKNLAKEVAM
Test [3] addresses T1, [Pyruvate dehydrogenase (acetyl-transferring)] kinase isozyme 2, mitochondrial. The test is described as follows: Isothermal Titration Calorimetry (ITC). To be noted: pH 7.5; 15 °C. The method, then:
(§1) The PDK2 or Hsp90 N-terminal domain protein was dialyzed against 1 liter of thedialysis buffer containing 50 mM Tris-Cl, pH 7.5, 50 mM KCl, 1 mM MgCl2, and 0.5 mM β-mercaptoethanol.

Test [4] concerns the target T2, Heat shock protein HSP 90-alpha [1-236] (Homo sapiens, UniProt P07900).
T2 construct: 1-236
As to the kind of experiment: Isothermal Titration Calorimetry (ITC). The settings on record: pH 7.5; 15 °C. The method, then:
as §1

For `O=C(O)C(Cl)Cl` [DCA], the IC50 in test [1] came out at 183 µM; in test [2], 80 µM.
Take `Oc1ccc(-c2nnc(S)n2-c2cccc3ccccc23)c(O)c1` [Resorcinol analog, 1]: the IC50 in test [1] was 3.82 µM; in test [2], 0.28 µM. Besides, the Kd in test [3] came to 6.76 µM; in test [4], 0.025 µM.
